Drawing on ChEMBL document CHEMBL1150148, “Isolation and structure elucidation of an isoflavone and a sesterterpenoic acid from Henriettella fascicularis” (J Nat Prod, 2002), this text covers IC50 and inhibition for three compounds.

Assay [1] has as its system Ishikawa. Put plainly: Estrogenic activity in human Ishikawa cells assessed as induction of alkaline phosphatase activity after 4 days by para-nitrophenol release assay. The assay is classed as functional, cell-based. The settings on record: 96 h.
Assay [2] has as its system Ishikawa. Put plainly: Antiestrogenic activity in human Ishikawa cells assessed as inhibition of estradiol-induced induction of alkaline phosphatase activity after 4 days by para-nitrophenol release assay. The assay is classed as functional, cell-based. The settings on record: 96 h.
Assay [3] deals with T1, Estrogen receptor (Homo sapiens, UniProt P03372).
T1 sequence (P03372 whole entry): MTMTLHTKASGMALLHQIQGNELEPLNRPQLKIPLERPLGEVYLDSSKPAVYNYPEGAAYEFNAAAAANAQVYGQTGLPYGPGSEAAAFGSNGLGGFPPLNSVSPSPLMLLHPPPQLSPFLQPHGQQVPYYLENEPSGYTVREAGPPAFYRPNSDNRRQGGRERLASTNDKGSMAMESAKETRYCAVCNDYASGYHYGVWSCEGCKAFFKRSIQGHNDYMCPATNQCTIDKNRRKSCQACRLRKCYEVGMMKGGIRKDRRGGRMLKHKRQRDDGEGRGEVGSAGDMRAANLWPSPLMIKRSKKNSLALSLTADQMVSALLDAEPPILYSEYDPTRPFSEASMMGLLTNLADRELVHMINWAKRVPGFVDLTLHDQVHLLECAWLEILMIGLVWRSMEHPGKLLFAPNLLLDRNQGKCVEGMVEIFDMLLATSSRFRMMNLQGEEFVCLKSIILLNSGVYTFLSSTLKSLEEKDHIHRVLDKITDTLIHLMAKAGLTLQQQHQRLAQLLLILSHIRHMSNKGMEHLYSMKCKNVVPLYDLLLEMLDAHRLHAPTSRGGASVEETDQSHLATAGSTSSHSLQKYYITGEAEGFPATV

For assay [4], the target named is Estrogen receptor beta (Homo sapiens, UniProt Q92731).
Description: Displacement of [3H]estradiol from human recombinant ERbeta
Assay [5] concerns Ishikawa. Briefly: Antiestrogenic activity in human Ishikawa cells assessed as inhibition of estradiol-induced induction of alkaline phosphatase activity at 20 uM after 4 days by para-nitrophenol release assay. In kind it is functional. As to conditions: 96 h.

Each structure is given as a SMILES string.

Estrogen receptor beta, sequence (Q92731 whole entry): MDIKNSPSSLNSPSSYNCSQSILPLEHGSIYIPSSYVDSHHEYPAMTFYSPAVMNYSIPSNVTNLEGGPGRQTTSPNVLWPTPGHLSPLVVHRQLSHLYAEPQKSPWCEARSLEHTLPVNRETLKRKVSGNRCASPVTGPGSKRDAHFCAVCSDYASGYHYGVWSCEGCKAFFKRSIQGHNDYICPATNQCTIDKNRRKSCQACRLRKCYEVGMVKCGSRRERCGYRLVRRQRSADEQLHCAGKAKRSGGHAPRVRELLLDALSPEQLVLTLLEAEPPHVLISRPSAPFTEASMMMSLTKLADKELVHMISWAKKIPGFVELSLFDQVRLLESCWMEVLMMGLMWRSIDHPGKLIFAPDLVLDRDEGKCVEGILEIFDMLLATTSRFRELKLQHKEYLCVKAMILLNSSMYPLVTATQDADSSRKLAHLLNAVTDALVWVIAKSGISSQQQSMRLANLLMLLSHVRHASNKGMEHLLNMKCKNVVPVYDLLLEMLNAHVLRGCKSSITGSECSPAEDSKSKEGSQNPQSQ

In the case of `O=c1c(-c2ccc(O)cc2)coc2cc(O)cc(O)c12` [GENISTEIN], in assay [1], the 50% inhibitory concentration (IC50) came to 0.51 µM.
As for `Cc1c(O)c(C)c2occ(-c3ccc(O)cc3)c(=O)c2c1O`, the half-maximal inhibitory concentration (IC50) in assay [2] was 10.5 µM; in assay [3], 10.2 µM; in assay [1], > 20 µM; in assay [4], 0.88 µM.
For `O=c1cc(-c2ccc(O)cc2)oc2cc(O)cc(O)c12` [APIGENIN], in assay [5], the inhibition at 20 µM amounted to 25%.

As usually defined, the IC50 is the concentration at which inhibition is half-maximal. The term inhibition denotes the percentage by which the read-out fell short of the control.
